Source: the supplement of paper PMC4862054

Columns and labels:
Details in all cases: incubation time: 72 h
DU-4475 [1] = experiment: normalised viability (% of control), CellTiter-Blue; higher = more viable cells (100 = DMSO, 0 = benzethonium chloride kill control)
Protocol: (§1)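 DSRT, CellTiter-Blue viability, 72 h incubation. Signal is normalised to DMSO and benzethonium chloride controls. Value is the normalised response at dose 1.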

MDA-MB-231 = experiment: as above
Protocol: as §1

HCC1937 = experiment: as above
Protocol: as §1

CAL-51 [2] = experiment: as above
Protocol: as §1

BT-549 = experiment: as above
Protocol: as §1

MDA-MB-436 [3] = experiment: as above
Protocol: as §1

MDA-MB-453 [4] = experiment: as above
Protocol: as §1

CAL-85-1 [5] = experiment: as above
Protocol: as §1

BT-474 [6] = experiment: as above
Protocol: as §1

Hs578T [7] = experiment: as above
Protocol: as §1

HCC1143 [8] = experiment: as above
Protocol: as §1

CAL-120 [9] = experiment: as above
Protocol: as §1

HCC1599 [10] = experiment: as above
Protocol: as §1

MFM-223 [11] = experiment: as above
Protocol: as §1

SK-BR-3 = experiment: as above
Protocol: as §1

MDA-MB-468 = experiment: as above
Protocol: as §1

HDQ-P1 = experiment: as above
Protocol: as §1

CAL-148 [12] = experiment: as above
Protocol: as §1

DU-4475 [13] = experiment: normalised viability (% of control), CellTiter-Blue; higher = more viable cells (about 100 = DMSO control)
Protocol: (§2)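 DSRT, CellTiter-Blue viability, 72 h incubation. Signal is normalised to DMSO and benzethonium chloride controls. Value is the normalised response at dose 3.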

CAL-51 [14] = experiment: as above
Protocol: as §2

MDA-MB-436 [15] = experiment: as above
Protocol: as §2

MDA-MB-453 [16] = experiment: as above
Protocol: as §2

BT-474 [17] = experiment: as above
Protocol: as §2

Hs578T [18] = experiment: as above
Protocol: as §2

HCC1143 [19] = experiment: as above
Protocol: as §2

CAL-120 [20] = experiment: as above
Protocol: as §2

HCC1599 [21] = experiment: as above
Protocol: as §2

MFM-223 [22] = experiment: as above
Protocol: as §2

CAL-85-1 [23] = experiment: normalised viability (% of control), CellTiter-Blue; higher = more viable cells (about 100 = DMSO control)
Procedure, shortened: (§3)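 After 72 h on compound-loaded 384-well plates, breast cancer cell lines received 2.5 µl CellTiter-Blue reagent for 2 h at 37 °C. Fluorescence at 560/590 nm was scaled per plate so that vehicle was 100 and a positive kill control was 0. The value stands for normalised viability at a single listed concentration of the series.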

CAL-148 [24] = experiment: as above
Procedure, shortened: as §3

Cc1cnc(NC(=O)Nc2cc(Br)c(C)cc2OC[C@@H]2CNCCO2)cn1
normalised viability (DU-4475 [1]; 0.1 nM): 108%
normalised viability (MDA-MB-231; 0.1 nM): 93.3%
normalised viability (HCC1937; 0.1 nM): 93.6%
normalised viability (CAL-51 [2]; 0.1 nM): 86.8%
normalised viability (BT-549; 0.1 nM): 87.9%
normalised viability (MDA-MB-436 [3]; 0.1 nM): 119%
normalised viability (MDA-MB-453 [4]; 0.1 nM): 99.5%
normalised viability (CAL-85-1 [5]; 0.1 nM): 96.7%
normalised viability (BT-474 [6]; 0.1 nM): 107%
normalised viability (Hs578T [7]; 0.1 nM): 106%
normalised viability (HCC1143 [8]; 0.1 nM): 115%
normalised viability (CAL-120 [9]; 0.1 nM): 98.6%
normalised viability (HCC1599 [10]; 0.1 nM): 114%
normalised viability (MFM-223 [11]; 0.1 nM): 102%
normalised viability (SK-BR-3; 0.1 nM): 91.2%
normalised viability (MDA-MB-468; 0.1 nM): 110%
normalised viability (HDQ-P1; 0.1 nM): 84.2%
normalised viability (CAL-148 [12]; 0.1 nM): 99.8%
normalised viability (DU-4475 [13]; 1 nM): 90.8%
normalised viability (CAL-51 [14]; 1 nM): 95%
normalised viability (MDA-MB-436 [15]; 10 nM): 112%
normalised viability (MDA-MB-453 [16]; 1 nM): 104%
normalised viability (BT-474 [17]; 10 nM): 101%
normalised viability (Hs578T [18]; 10 nM): 101%
normalised viability (HCC1143 [19]; 10 nM): 82.5%
normalised viability (CAL-120 [20]; 10 nM): 87.9%
normalised viability (HCC1599 [21]; 10 nM): 122%
normalised viability (MFM-223 [22]; 10 nM): 89.6%
normalised viability (CAL-85-1 [23]; 100 nM): 85.9%
normalised viability (CAL-148 [24]; 100 nM): 101%

NCCCNCCSP(=O)(O)O [Amifostine]
normalised viability (DU-4475 [1]; 1 nM): 91.6%
normalised viability (MDA-MB-231; 1 nM): 80%
normalised viability (HCC1937; 1 nM): 91.8%
normalised viability (CAL-51 [2]; 1 nM): 106%
normalised viability (BT-549; 1 nM): 98%
normalised viability (MDA-MB-436 [3]; 1 nM): 102%
normalised viability (MDA-MB-453 [4]; 1 nM): 97.4%
normalised viability (CAL-85-1 [5]; 1 nM): 85.2%
normalised viability (BT-474 [6]; 1 nM): 85.7%
normalised viability (Hs578T [7]; 1 nM): 107%
normalised viability (HCC1143 [8]; 1 nM): 81.4%
normalised viability (CAL-120 [9]; 1 nM): 73.3%
normalised viability (HCC1599 [10]; 1 nM): 110%
normalised viability (MFM-223 [11]; 1 nM): 76.4%
normalised viability (SK-BR-3; 1 nM): 91.7%
normalised viability (MDA-MB-468; 1 nM): 111%
normalised viability (HDQ-P1; 1 nM): 98.3%
normalised viability (CAL-148 [12]; 1 nM): 103%
normalised viability (DU-4475 [13]; 10 nM): 97.3%
normalised viability (CAL-51 [14]; 10 nM): 105%
normalised viability (MDA-MB-436 [15]; 100 nM): 107%
normalised viability (MDA-MB-453 [16]; 10 nM): 85.7%
normalised viability (BT-474 [17]; 100 nM): 95.8%
normalised viability (Hs578T [18]; 100 nM): 79.1%
normalised viability (HCC1143 [19]; 100 nM): 78.3%
normalised viability (CAL-120 [20]; 100 nM): 90.4%
normalised viability (HCC1599 [21]; 100 nM): 98.2%
normalised viability (MFM-223 [22]; 100 nM): 77.7%
normalised viability (CAL-85-1 [23]; 1000 nM): 81.2%
normalised viability (CAL-148 [24]; 1000 nM): 90.6%

CC[C@@H]1C(=O)N(C)c2cnc(Nc3ccc(C(=O)NC4CCN(C)CC4)cc3OC)nc2N1C1CCCC1 [BI 2536]
normalised viability (DU-4475 [1]; 0.1 nM): 109%
normalised viability (MDA-MB-231; 0.1 nM): 105%
normalised viability (HCC1937; 0.1 nM): 86.5%
normalised viability (CAL-51 [2]; 0.1 nM): 89.5%
normalised viability (BT-549; 0.1 nM): 115%
normalised viability (MDA-MB-436 [3]; 0.1 nM): 112%
normalised viability (MDA-MB-453 [4]; 0.1 nM): 94.7%
normalised viability (CAL-85-1 [5]; 0.1 nM): 96.3%
normalised viability (BT-474 [6]; 0.1 nM): 101%
normalised viability (Hs578T [7]; 0.1 nM): 122%
normalised viability (HCC1143 [8]; 0.1 nM): 109%
normalised viability (CAL-120 [9]; 0.1 nM): 91.8%
normalised viability (HCC1599 [10]; 0.1 nM): 83.2%
normalised viability (MFM-223 [11]; 0.1 nM): 99%
normalised viability (SK-BR-3; 0.1 nM): 98.5%
normalised viability (MDA-MB-468; 0.1 nM): 114%
normalised viability (HDQ-P1; 0.1 nM): 94%
normalised viability (CAL-148 [12]; 0.1 nM): 98%
normalised viability (DU-4475 [13]; 1 nM): 91.7%
normalised viability (CAL-51 [14]; 1 nM): 89.4%
normalised viability (MDA-MB-436 [15]; 10 nM): 77.8%
normalised viability (MDA-MB-453 [16]; 1 nM): 83.2%
normalised viability (BT-474 [17]; 10 nM): 44.4%
normalised viability (Hs578T [18]; 10 nM): 83.5%
normalised viability (HCC1143 [19]; 10 nM): 62.8%
normalised viability (CAL-120 [20]; 10 nM): 34.1%
normalised viability (HCC1599 [21]; 10 nM): 90.9%
normalised viability (MFM-223 [22]; 10 nM): 41.8%
normalised viability (CAL-85-1 [23]; 100 nM): 59.4%
normalised viability (CAL-148 [24]; 100 nM): 28.3%
